Legend:
[1] = In-vitro elution of coated stents in 0.01M phosphate buffered saline at 37° C. (HPLC); assay type: physicochemical; settings: 5 min
Experimental: In-Vitro Elution evaluation of the EDTA coated stent above prepared was performed in 0.01M phosphate buffered saline at 37° C. water shaking bath then tested on High Performance Liquid Chromatography (HPLC). EDTA was separated from interfering peaks by a Carbon18 reverse phase column and quantified with an external EDTA calibration standard solution prepared at similar concentrations. The percentage of EDTA eluted was calculated during each time point.
In-Vitro Elution evaluation of Tetra acetoxymethyl ester EDTA coated stent was performed in 0.01M phosphate buffered saline at 37° C. water shaking bath then tested on High Performance Liquid Chromatography (HPLC). Tetra acetoxymethyl ester EDTA was separated from interfering peaks by a Carbon18 reverse phase column and quantified with an external tetra acetoxymethyl ester EDTA calibration standard solution prepared at similar concentrations. The percentage of tetra acetoxymethyl ester EDTA eluted was calculated during each time point.
In-Vitro Elution evaluation of the EDTA complex coated stent was performed in 0.01M phosphate buffered saline at 37° C. water shaking bath then tested on High Performance Liquid Chromatography (HPLC). EDTA disodium was separated from interfering peaks by a Carbon18 reverse phase column and quantified with an external EDTA disodium calibration standard solution prepared at similar concentrations. […]

[2] = pH of 1 mg/ml EDTA or analogue in water or phosphate buffer; assay type: physicochemical; settings: 1 mg/ml in 0.01 M pH 7.4 phosphate buffer; 21.8-22.3 ° C.; listed as EDTA tetra sodium
[3] = as above; assay type: physicochemical
Text: Based on the pH of EDTA or analogues in water and in 0.1M phosphate buffered saline as show in Table 2, EDTA disodium salt or dipotassium salt has a pH close to neutral pH in human body (6.42-6.92), whereas EDTA tetrasodium or trisodium has a very basic pH (>8.0) in human body. EDTA disodium or dipotassium is preferred in the examples.

[4] = tested on: blood clotting (fresh pig blood); experiment: Activated clotting time (ACT) of EDTA or analogues in fresh pig blood (Example 12); settings: for Increase in clotting time compared to control: control 154 sec
Experimental: The activated clotting time (ACT) evaluation of EDTA or analogues was performed in fresh pig blood and recorded employing the Hemochron® Response device.
The ACT measurements were made in fresh pig blood. 1.0 ml of fresh pig blood was added to a test tube containing an activator (Hemochron@Celite@ ACT tubes, Lot F8FTE026 from Accriva Diagnostics, Inc.). A target amount of drug solution was then added into the test tube. The test tube was gently swirled so that the blood and drug was well-mixed. 0.1 ml of 0.3M calcium chloride was then added. The tube was gently shaken before being inserted into the Hemochron Response detector. The ACT read out was recorded and reported. The ACT of the control blood in the absence of any drug as first determined to establish a baseline. Then ACT was determined in the presence of different concentrations of EDTA or analogues as a single component.

In the case of `O=C(O)CN(CCN(CC(=O)O)CC(=O)O)CC(=O)O` [EDTA•4Na•xH2O], the “Cumulative percent release of EDTA” value [1] is reported as “about 99.8%”, the pH [2] is reported as 8.27 and the pH ([3]; 1 mg/ml in d-water, 21.8-22.0 ° C., listed as EDTA tetra sodium) is reported as 9.61. The “pH” value ([3]; in water and phosphate buffered saline, listed as EDTA tetrasodium) was > 8.0, the “Clotting time (ACT)” value ([4]; 100 ng/mg) was 204 s and the “Increase in clotting time compared to control” value (“Increase in clotting time” for short) ([4]; 100 ng/mg) was 50 s. For the same compound, the “Clotting time (ACT)” value ([4]; 200 ng/mg) was 275 s, the “Increase in clotting time” value ([4]; 200 ng/mg) was 121 s and the “Clotting time (ACT)” value ([4]; 250 ng/mg) was 329 s. The “Increase in clotting time” value ([4]; 250 ng/mg) was 175 s, the “Clotting time (ACT)” value ([4]; 300 ng/mg) was >500 s and the “Increase in clotting time” value ([4]; 300 ng/mg) was >346 s. The “blood coagulation compared to the blood control” value ([4]; EDTA 200 ng/mg, sodium salts 300 ng/mg, listed as EDTA tetra sodium salt) was “The same trend”.

From US20260315653A1, “ANTICOAGULANT COMPOSITIONS COMPRISING ANTI-PLATELET AND ANTI-INFLAMMATORY DRUGS AND METHODS AND DEVICES FOR THEIR USE” (Elixir Medical Corporation, priority 2023, published 2026)
